Entries after “also recorded” stand apart in the source; their conditions may differ.
Key:
[1] = In situ calcium ion-selective electrode (ISE) measurement of COM crystallization; conditions: 20 μg/ml additive; supersaturated calcium oxalate S=5.4, stirred; ISE slope in first 40 min vs control
Experimental: The COM growth rate was measured as the slope (dCa/dt) of decreasing Ca^2+ concentration within the first 40 min of crystallization. […] The percent reduction in COM growth rate was calculated by comparing the ISE slopes of peptides and control using the formula, Percent Reduction=[1−(dCa/dt)peptide/(dCa/dt)control]×100%. Data are averages of 2 or 3 measurements (error bars equal two standard deviations);
COM crystals for bulk crystallization studies were synthesized using a reported procedure that produces micron-sized crystals with large basal (100) surfaces. COM crystals prepared with molar composition 0.7 mM CaCl2: 0.7 mM Na2C2O4: 150 mM NaCl are referred to as the control. Growth solutions prepared with peptides used 20 μg/ml of the additive (unless otherwise stated).
As such, measurements reported herein were conducted at a single peptide concentration (20 μg/ml) to assess COM growth inhibition. To facilitate comparison of peptides in Table 1, Applicants calculated the percent reduction in COM growth rate using the relative difference in ISE slopes (units of ppm Ca^2+ per time) for peptide and control samples during the first 40 min of crystallization.
The slope of ISE curves (FIG. 2A) is the temporal change in free Ca^2+ concentration due to COM nucleation (primary and secondary) and crystal growth. Deconvoluting these two processes (nucleation and growth) from ISE data is nontrivial, particularly if one wishes to extract detailed kinetic information of COM growth rates. […] In the current study, the distinct advantage of ISE compared to more traditional approaches is its ease of use and the rapid time for data acquisition that enables high-throughput analysis of large peptide libraries.
A quantitative comparison of peptide efficacy for inhibiting COM crystallization was performed using in situ ISE measurements. The percent inhibition in COM growth rate was calculated using the relative difference in ISE slopes in the presence of 20 μg/mL peptide. […] The effect of Asp with Glu in peptide sequences was measured on COM growth inhibition (Table 2).

[2] = Wang et al. [11]; similar citrate concentration, lower supersaturation S=1.3; cited from earlier work
[3] = Kinetic studies of COM growth at 60° C. using the calcium assay over 24 hours; conditions: 20 μg/mL peptide, 24-hour period
Experimental: A second library of peptides containing glutamic acid (E) and alanine (A) amino acids was synthesized. The sequences of E-peptides shown in Table 2 were used in bulk crystallization studies and kinetic studies to assess their role as growth inhibitors or promoters of COM crystallization. […] These analyses were performed using the calcium assay to track the kinetics of crystallization over a 24-hour period. The calcium ion concentration in the supernatant solution was assessed at periodic times.
(§1) Free calcium concentration in the crystallization solution was measured by a colorimetric assay using Quantichrome DICA 500 Calcium assay kit (BioAssay Systems, Hayward, Calif.). Standard solutions (0, 0.1, 0.2, 0.3, 0.4, 0.5, and 1 mM) were prepared using calcium solutions provided with the kit. Detection reagent was prepared by mixing equal volumes of reagent A and reagent B according to manufacturer's instructions. A 10 μL sample was withdrawn from the top of each crystallization well without disturbing the bottom and dispensed into a 96-well microplate. 100 μL of detection reagent was added to each well and incubated for 3 minutes at room temperature. The absorbance was measured at 612 nm using Biotek Synergy H4 microplate reader (BioTek, Winooski, Vt.). Calcium concentration was determined using a calibration curve prepared from standard calcium solutions.

[4] = Bulk crystallization studies of COM crystal size and habit (optical microscopy, SEM, AFM)
Experimental: FIGS. 4A-4B show macroscopic characterization of COM crystals from bulk crystallization in solutions of 0.5 mM CaC2O4 and 20 μg/ml peptide. Optical microscopy was used to measure: Percent distribution of elongated hexagonal platelet (shaded bars) and diamond platelet (pattern bars) crystal morphologies (FIG. 4A); and length of the COM (100) basal surface measured along the direction (i.e. apical tip-to-tip distance) for hexagonal and diamond morphologies (FIG. 4B). Data in (FIG. 4A) and (FIG. 4B) are the average of three separate crystallization experiments performed at 60° C. for 3 days (error bars equal one standard deviation). Data for peptide D4 (diamond habit) was omitted based on too few crystals for statistical analysis;
COM crystals for bulk crystallization studies were synthesized using a reported procedure that produces micron-sized crystals with large basal (100) surfaces. COM crystals prepared with molar composition 0.7 mM CaCl2: 0.7 mM Na2C2O4: 150 mM NaCl are referred to as the control. Growth solutions prepared with peptides used 20 μg/ml of the additive (unless otherwise stated). The crystals were characterized by optical microscopy using a Leica DM2500-M microscope, scanning electron microscope (SEM) using a FEI 235 Dual-Beam Focused Ion-beam instrument, atomic force microscopy (AFM) using an Asylum MFP-3D-SA instrument (Santa Barbara, Calif.), and a calcium ion-selective electrode (ISE, ThermoScientific).
ISE measurements can be used to screen peptide efficacy, but provide little information regarding the specificity of peptide binding to different surfaces of COM crystals. To this end, Applicants used a second analysis step to identify the effect of peptides on COM crystal size and habit. The influence of the peptide library on macroscopic properties of COM crystals was assessed using bulk crystallization studies and optical and scanning electron microscopy to characterize COM crystals grown in the presence of peptides. In vitro, COM crystallization yields elongated hexagonal platelets with {100} basal surfaces bounded by {010} and crystallographically equivalent {121} apical surfaces (FIG. 3A). […] Applicants observed that multiple peptides in the library reduced growth along the directions, which decreased the crystal aspect ratio (length-to-width) and shifted the morphology from hexagonal to diamond platelets. This change in crystal habit can be attributed to the preferential binding of peptides to COM {121} surfaces, which slows growth along the naturally fast growth directions within the (100) plane.
To more systematically assess the surface topography of COM crystals, Applicants used atomic force microscopy (AFM) to probe the effect of peptides on COM (100) surface roughness. Crystals extracted from control and peptide D5 batches were prepared on AFM sample disks and imaged in air. The RMS roughness for (100) surfaces of hexagonal-shaped crystals from the control and test peptide D5 were approximately 1.0 and 4.3 nm, respectively.
Crystal batches prepared in bulk studies were analyzed using optical microscopy to quantify changes in COM crystal size and aspect ratio. […] Although there were clear differences in the percent population of diamond-shaped crystals among peptides tested in this study, Applicants observed that the size of diamond crystals were generally the same, irrespective of peptide sequence (FIG. 4B). The majority of COM hexagonal platelets in peptide samples had similar size and aspect ratio as the control (here Applicants only report the length of COM crystals in FIG. 4B). A notable exception, however, was peptide D4, which produced a 22% increase in the length-to-width aspect ratio of COM hexagonal crystals, and an increase in the length from 35 μm (control) to 75 μm (peptide D4).

[5] = High-throughput colorimetric calcium depletion assay (crystallization half-time); conditions: 37° C., crystallization volume 600 μL, shaking; logistic fit
Experimental: as §1
Time course of depletion of free calcium in the crystallization solution, normalized to the initial concentration, was fitted to a nonlinear logistic function using OriginPro Software (Origin Lab, Northhampton, Mass.). The logistic function relating calcium concentration to time is given by
where [Ca]t is the normalized calcium concentration at time t, A1 is the normalized initial supersaturation concentration (i.e at t=0), A2 is the normalized equilibrium concentration (i.e. at t=∞), p is the hill coefficient which represents slope of the curve at midpoint, and t1/2 is the crystallization half-time (CHT), defined as the time at which crystallization is 50% complete (i.e. [Ca]t1/2=[…]). A1 was fixed at 1, and A2, p and t1/2 were obtained from fitting the data to equation 1. CHT was used as a measure of inhibition potentials of the peptides. A one-way ANOVA in combination with Tukey post hoc test at p<0.05 level was used to probe statistical significance. Applicants' studied the effects of experimental parameters including volume, shaking and temperature on crystallization in designing a high-throughput screening assay. Applicants have shown the logistic model effectively represents the three phases: induction, crystal growth and equilibrium observed in our setup, and CHT (t1/2) can be used as a measure of efficacy of potential crystal growth modifiers. The peptide library screened comprised of Asp and Ala residues (peptides D1-D13) at optimized assay conditions of 37° C., crystallization volume of 600 μL in a shaking environment. […] The high throughput of the assay provides the opportunity to assess the growth modulation potential of crystal growth modifiers at varying modifier concentrations, supersaturations and ionic strengths with relative ease. […] Finally, the assay can be translated to other crystallization systems in a relatively straightforward fashion for rational design and discovery of growth modifiers for specific applications.

## O=C(O)CC(O)(CC(=O)O)C(=O)O [citrate, reference compound]
[1]
  percent reduction in COM growth rate: 28±6%
[2]
  reduction in COM growth rate: 48%

## A-E-A-E-A-E-A-E-A-E-A-E-A-E-A-E-A-E (AEAEAEAEAEAEAEAEAE; Synthesized Calcium oxalate monohydrate inhibitory polypeptide) [E10]
[3]
  inhibition of COM crystal growth (calcium in supernatant over time): inhibition of COM crystal growth; also recorded: more effective inhibitor than E11

## ADAADDAADAADDAAAAA (Synthesized Calcium oxalate monohydrate inhibitory polypeptide) [D5]
[1]
  percent reduction in COM growth rate: 30%
[4]; 20 μg/ml peptide, 60° C. for 3 days, optical microscopy, average of three experiments
  percentage of diamond-shaped crystals in total crystal population: largest populations of diamond-shaped crystals
[4]; AFM imaged in air
  RMS roughness of diamond-shaped crystals: 3.2 nm
[4]; AFM imaged in air, control approximately 1.0 nm
  RMS roughness of (100) surfaces of hexagonal-shaped crystals: ~4.3 nm
[5]
  CHT (hr), crystallization half-time: 4.641 h

## E-E-E-E-E-E-E-E-E-E-E-E-E-E-E-E-E-E (EEEEEEEEEEEEEEEEEE; Synthesized Calcium oxalate monohydrate inhibitory polypeptide) [E11]
[3]
  inhibition of COM crystal growth (calcium in supernatant over time): inhibition of COM crystal growth

Source: patent US10246489B2, “Peptide inhibitors of calcium oxalate monohydrate crystallization and uses thereof” (UNIVERSITY OF HOUSTON, priority 2013, dated 2019)
